Measured values reported in ChEMBL document CHEMBL1136671, “Amino propynyl benzoic acid building block in rigid spacers of divalent ligands binding to the Syk SH2 domains with equally high affinity as the natural ligand” (Bioorg Med Chem Lett, 2003).
Numbered stars: 1 amine (or outer) side, 2 acyl side, 3 side chain; on linkers, the order of the positions; unused ones are H or OH. Square brackets hold non-standard residues; d marks the D form. Peptide text beside a SMILES is read from it. NH(CH2CH2O)6CH2CO = O=C(COCCOCCOCCOCCOCCOCCN[*:1])[*:2]; pY = N[C@@H](Cc1ccc(OP(=O)(O)O)cc1)C(=O)O; X1 = O=C(c1ccc(C#CCN[*:1])cc1)[*:2]

How the values were obtained:
[1] = target: T1, Tyrosine-protein kinase SYK (Homo sapiens, UniProt P43405); assay: Binding affinity for Syk tandem SH2 domain in surface plasmon resonance assay (SPR)
[2] = target: T1, Tyrosine-protein kinase SYK; assay: Dissociation binding constant for Syk tandem SH2 domain

IC50 [1]	Kd [2]	Compound
62000 nM	4000 nM	CC(=O)N[C@@H](Cc1ccc(OP(=O)(O)O)cc1)C(=O)N[C@H](C(=O)NCC(=O)N[C@@H](CC(C)C)C(=O)NCC(=O)NCC#Cc1ccc(C(=O)NCC(=O)N[C@@H](Cc2ccc(OP(=O)(O)O)cc2)C(=O)N[C@@H](CCC(=O)O)C(=O)N[C@H](C(=O)N[C@@H](CC(C)C)C(N)=O)[C@@H](C)O)cc1)[C@@H](C)O (Ac-[pY]TGLG[X1]G[pY]ETL-NH2)
100 nM	29 nM	CC(=O)N[C@@H](Cc1ccc(OP(=O)(O)O)cc1)C(=O)N[C@H](C(=O)NCC(=O)N[C@@H](CC(C)C)C(=O)NCC#Cc1ccc(C(=O)NCC#Cc2ccc(C(=O)N[C@@H](Cc3ccc(OP(=O)(O)O)cc3)C(=O)N[C@@H](CCC(=O)O)C(=O)N[C@H](C(=O)N[C@@H](CC(C)C)C(N)=O)[C@@H](C)O)cc2)cc1)[C@@H](C)O (Ac-[pY]TGL[X1][X1][pY]ETL-NH2)
570000 nM	166000 nM	CC(=O)N[C@@H](Cc1ccc(OP(=O)(O)O)cc1)C(=O)N[C@@H](CCC(=O)O)C(=O)N[C@H](C(=O)N[C@@H](CC(C)C)C(N)=O)[C@@H](C)O (Ac-[pY]ETL-NH2)
130 nM	37 nM	CC(=O)N[C@@H](Cc1ccc(OP(=O)(O)O)cc1)C(=O)N[C@H](C(=O)NCC(=O)N[C@@H](CC(C)C)C(=O)N[C@@H](CC(N)=O)C(=O)N[C@H](C(=O)N[C@@H](CCCN=C(N)N)C(=O)N[C@@H](CO)C(=O)N[C@@H](CCC(N)=O)C(=O)N[C@@H](CCC(=O)O)C(=O)N[C@H](C(=O)N[C@@H](Cc1ccc(OP(=O)(O)O)cc1)C(=O)N[C@@H](CCC(=O)O)C(=O)N[C@H](C(=O)N[C@@H](CC(C)C)C(N)=O)[C@@H](C)O)[C@@H](C)O)[C@@H](C)O)[C@@H](C)O (Ac-[pY]TGLNTRSQET[pY]ETL-NH2)
1200 nM	340 nM	CC(=O)N[C@@H](Cc1ccc(OP(=O)(O)O)cc1)C(=O)N[C@H](C(=O)NCC(=O)N[C@@H](CC(C)C)C(=O)NCCOCCOCCOCCOCCOCCOCC(=O)N[C@@H](Cc1ccc(OP(=O)(O)O)cc1)C(=O)N[C@@H](CCC(=O)O)C(=O)N[C@H](C(=O)N[C@@H](CC(C)C)C(N)=O)[C@@H](C)O)[C@@H](C)O (Ac-[pY]TGL[NH(CH2CH2O)6CH2CO][pY]ETL-NH2)
